According to article PMC13453949 (Journal of Advanced Research, 2025):
≈ marks a conversion by molar mass, not a printed value. Entries after “also recorded” stand apart in the source; their conditions may differ. Read-outs that look alike come from different tables or passages of the source.

Experiments:
[1] = test system: C. albicans; assay: Antifungal activity test of the 17 candidate compounds against C. albicans; type: cell-based, Candida albicans; details: tested at 12 h, 24 h and 36 h
[2] = test system: C. albicans; assay: microbe, parasite or virus in culture; type: cell-based, Candida albicans; details: for MIC: Candida albicans, read-out: Minimum inhibitory concentration (MIC); for Fungal recovery after treatment: after 36 h of treatment
[3] = test system: 293 T cells; details: 24 h; for Cell survival rate: 128 μg/mL (highest tested)
[4] = test system: Raw264.7 cells; details: 24 h; for Cell survival rate: 128 μg/mL (highest tested)
[5] = test system: KB (human oral epidermoid carcinoma cells); details: 24 h; for Cell survival rate: 128 μg/mL (highest tested)
[6] = test system: C. albicans; type: cell-based, Candida albicans; details: α-hederin 32 μg/mL; vs untreated control (CK)
[7] = test system: C. albicans biofilm; assay: Biofilm formation, total biofilm biomass by crystal violet staining; type: cell-based; details: Candida albicans, 24 h, read-out: Inhibition of early biofilm formation
[8] = test system: C. albicans mature biofilm; assay: Mature biofilm, metabolic activity by XTT reduction; type: cell-based; details: Candida albicans, 24 h, read-out: Inhibition rate of mature biofilms
[9] = test system: C. albicans hyphal formation; type: cell-based, Candida albicans; details: RPMI-1640 + 10 % FBS, 24 h
[10] = test system: ergosterol content in C. albicans; assay: Ergosterol content determination; type: cell-based, Candida albicans; details: 16 μL/mL, compared to untreated control (CK)
[11] = test system: C. albicans; assay: Checkerboard dilution, fractional inhibitory concentration index; type: cell-based, Candida albicans
[12] = test system: C. albicans; assay: Murine oral candidiasis model; type: in vivo, BALB/c mice; details: for Hemoglobin (HGB) level / Platelet (PLT) counts / White blood cell count (WBC): relative to Can group
[13] = test system: C. albicans cell surface hydrophobicity; type: cell-based, Candida albicans; details: 128 μg/mL
[14] = threshold concentration 1024 μg/mL

Oc1ccc2ccccc2c1N=Nc1ccc(N=Nc2ccccc2)cc1 [Sudam Ⅲ]
Anti − C. albicans activity [1, 14]: >1024 µg/mL

CC(C)=CCC[C@](C)(O[C@@H]1O[C@H](CO[C@@H]2O[C@@H](CO)[C@H](O)[C@H]2O[C@@H]2OC[C@@H](O)[C@H](O)[C@H]2O)[C@@H](O)[C@H](O)[C@H]1O)[C@H]1CC[C@]2(C)[C@@H]1[C@H](O)C[C@@H]1[C@@]3(C)CC[C@H](O[C@@H]4O[C@H](CO)[C@@H](O)[C@H](O)[C@H]4O[C@@H]4O[C@H](CO)[C@@H](O)[C@H](O)[C@H]4O)C(C)(C)[C@@H]3CC[C@]12C [Ginsenoside Ra2]
Anti − C. albicans activity [1, 14]: >1024 µg/mL

Elemicin
Anti − C. albicans activity [1]: <128 μL/mL | Anti − C. albicans activity [1, 14]: below 128 μg/mL | Minimum inhibitory concentration (MIC) ([2]; C. albicans CMCC(F)98001, YEPD, 37 °C, 24 h and 36 h): 16 μL/mL | Inhibition of C. albicans growth ([2]; at concentrations exceeding 0.5 μL/mL): 50 % −70 | Concentration with significant toxicity [3]: higher than 8 μL/mL | Concentration with significant toxicity [4]: higher than 8 μL/mL | Concentration with significant toxicity [5]: higher than 8 μL/mL

Evodiamine
Anti − C. albicans activity [1, 14]: >1024 µg/mL

C=C(C)C(O)COc1c2occc2cc2ccc(=O)oc12 (centres unmarked) [Isogosferol]
Anti − C. albicans activity [1, 14]: >1024 µg/mL

COc1cc2ccc(=O)oc2cc1O [Scopoletol]
Anti − C. albicans activity [1, 14]: >1024 µg/mL

Strictosamide
Anti − C. albicans activity [1, 14]: >1024 µg/mL

Triptofordin
Anti − C. albicans activity [1, 14]: >1024 µg/mL

OC(Cn1cncn1)(Cn1cncn1)c1ccc(F)cc1F [Fluconazole, reference compound]
Fungal growth at highest concentration ([2]; 128 μg/mL, after 24 h): persistent fungal growth | MIC [2]: > 128 µg/mL | Fungal recovery after treatment [2]: regrowth | Internal ultrastructure (TEM) [6]: no comparable ultrastructural damage | inhibition at 256 µg/mL [7]: 57% | inhibition at 128 µg/mL [8]: 17% | Hyphal formation ([9]; 256 μg/mL): failed to achieve complete suppression | Concentration reducing hyphal formation [9]: > 32 µg/mL | Reduction of ergosterol content [10]: 45% | Concentration in the combination showing additive effect [11]: 1 µg/mL | Hemoglobin (HGB) level ([12]; 128 μg/mL): restored | Platelet (PLT) counts ([12]; 128 μg/mL): normalized | White blood cell count (WBC) ([12]; 128 μg/mL): restored | Body weight change ([12]; mouse, in vivo): rebound in body weight | Cell survival rate [3]: above 80% | Cell survival rate [4]: above 80% | Cell survival rate [5]: above 80%

C[C@@H]1O[C@@H](O[C@H]2[C@H](O[C@H]3CC[C@@]4(C)[C@@H](CC[C@]5(C)[C@@H]4CC=C4[C@@H]6CC(C)(C)CC[C@]6(C(=O)O)CC[C@]45C)[C@]3(C)CO)OC[C@H](O)[C@@H]2O)[C@H](O)[C@H](O)[C@H]1O [α-Hederin]
Anti − C. albicans activity [1, 14]: below 128 μg/mL | C. albicans growth ([2]; 32 μg/mL): completely inhibited | MIC [2]: 32 µg/mL (≈ 42.6 µM) | Fungal recovery after treatment [2]: no fungal recovery observed | Growth inhibition of C. albicans ([2]; at concentrations above 8 μg/mL within 24 h): 50% | Internal ultrastructure (TEM) [6]: severe cytoplasmic content loss and vacuolization, thinning and irregularity of cell walls/membranes and membrane discontinuities | inhibition at 32 µg/mL [7]: 55% | inhibition at 256 µg/mL [7]: 75% | inhibition at 128 µg/mL [8]: 20% | Hyphal formation ([9]; 128 μg/mL): partial inhibition | Hyphal formation ([9]; 256 μg/mL): completely inhibit | Reduction of cell surface hydrophobicity (CSH) [13]: 85% | Reduction of ergosterol content [10]: 90% | Concentration in the combination showing additive effect ([11]; checkerboard, fluconazole plus α-hederin): 16 µg/mL | Hemoglobin (HGB) level ([12]; 32 μg/mL): restored | Platelet (PLT) counts ([12]; 32 μg/mL): normalized | White blood cell count (WBC) ([12]; 32 μg/mL): restored | C. albicans colony count on tongue ([12]; 128 μg/mL in drinking water, 5 days (128Hed)): no colonies were detected | Hemoglobin (HGB) level ([12]; 128 μg/mL): restored | Platelet (PLT) counts ([12]; 128 μg/mL): normalized | White blood cell count (WBC) ([12]; 128 μg/mL): restored | Body weight change ([12]; mouse, in vivo): rebound in body weight; also recorded: slowest initial weight loss, followed by a consistent increase | Fungal colonization of tongue (PAS staining) ([12]; mouse, in vivo): markedly reduced fungal colonization | Fungal load on tongue (colony counts) ([12]; α-hederin-treated group, dose not stated): significant decrease in fungal load | Cell survival rate [3]: above 80% | Cell survival rate [4]: above 80% | Cell survival rate [5]: above 80%

C[C@]12CCC[C@@]3(COC1=O)[C@@H]1CC[C@@H]4C[C@@]1(CC[C@@H]32)C[C@@]4(C)O [Hypodiolide A]
Anti − C. albicans activity [1, 14]: >1024 µg/mL
